# Where “and” joins values, the source holds several entries; their conditions need not be identical. Equal values may be shown once. Entries after “also recorded” stand apart in the source; their conditions may differ. Read-outs that look alike come from different tables or passages of the source.
# Tests used:
# [1] = test system: antibody producing cells (SRBC antigen); test: Plaque forming assay (PFC) in spleen cells of SRBC-immunized mice; assay type: in vivo
# [2] = Toxicity controls: mortality and weight gain in uninfected mice; assay type: in vivo; settings: uninfected mice; for Mean Weight Gain: start of treatment to 24 hours after final treatment
# Experimental: Groups of 5 uninfected mice were treated the same way and at the same times as described above. These animal were checked daily for survival. Their weigths were taken before the first treatment and 24 hours after the last treatment to determine drug effect on weight gain.
# [3] = test system: IgM antibody against SRBC antigen; test: Enzyme immunoassay of IgM antibody in blood of SRBC-immunized mice; assay type: in vivo; settings: Experiment 7, 10 mg/kg i.p.
# Experimental: Outbred CD1 mice were immunized with 0.1% volume for volume sheep red blood cell antigen suspended in saline. The mice were injected intraperitoneally with 0.5 ml, suspension of approximately 2×10^7 cells.
# The mice were injected shortly thereafter with a suspension of an immunomodulator of the invention. The immunomodulator dose was a 0.23 ml of a 1 mg/ml suspension in phosphate buffered saline. The injected dose was 10 mg/kg. The second injection was also intraperitoneal.
# The mice were killed five days after injections. Blood samples were taken for analysis of immunoglobulin. The determination was made by enzyme immunoassay using an anti μ-horseradish peroxidase conjugate. The spleen was removed, transferred to a petri dish containing 2 ml of Hank's balanced salt solution and 10 mMolar Hepes buffer (HBSS-HEPES). The spleen was gently crushed by the use of forceps, and the cell suspension was filtered through cotton gauze to eliminate cellular debris. The filtered suspension was brought to volume (5 ml) by the addition of HBSS-HEPES, the cells counted, and the suspension diluted to a final concentration of 5×10^6 cells/ml.
# [4] = test system: murinecytomegalovirus (MCMV) (Smith strain); test: Mortality in MCMV-infected mice; assay type: in vivo, Swiss Webster female mice; settings: for Survivors (%) / Survivors/total / Mean day to death: MCMV-infected mice; for Survivors (%) / Survivors/total: 21 days; for Mean day to death: of mice that died on or before day 21
# [5] = test system: Macrophage function (IL-1 activity in splenocytes); test: Macrophage function, IL-1 activity in splenocytes by [3H]thymidine uptake in PHA-stimulated thymocytes
# Experimental: (§1) Mice were administered a 50 mg/kg dose of the immunomodulators of the invention and were subsequently sacrificed. The spleens were harvested and splenocytes isolated. Immunologic assays were conducted on those splenocytes that were taken 24 hours after final treatment. These cells were subjected to tests to determine macrophage and natural killer (NK) cell function.
# Ribavarin (1-β-D-ribofuranosyl-1,2,4-triazole-carboxamide) was used in each subsequent experiment as a control.
# (§2) Animals were treated with a 50 mg/kg/day dosage of one of the tested compound and were killed 24 hr after the final treatment and their spleens removed. […] Red blood cells were removed by haemolytic lysis.
# Macrophage function was assessed by an interleukin-1 (IL-1) assay that utilizes responsiveness of mouse thymocytes to phytohemagglutin (PHA) which is dependent on IL-1 for its reactivity.
# The cells were incubated 72 hr at 37° C. During the last 4 hr of the incubation, the cells were pulsed with [^3 H] thymidine (1 μCi/well). The cells were then harvested and [H^3 ] thymidine incorporation was determined using a direct counter.
# [6] = test system: YAC-1 tumor cells; test: Natural killer cell activity, 4 hr chromium release assay
# Experimental: as §1
# Three week-old C57 BL/6 mice were procured and quarantined for 24 to 48 hours prior to treatment. The five oligopeptides described in tables 2, 3 and 4 were admixed with a 0.4% water solution of carboxymethylcellulose. The solutions were stored at 4° C. until use. Ribavarin (1-β-D-ribofuranosyl-1,2,4-triazole-carboxamide) was used in each subsequent experiment as a control.
# as §2
# Natural killer (NK) activity of murine cells was determined by testing splenic cells for their ability to lyse YAC-1 tumor cells in a conventional 4 hr chromium release assay as an indicator of NK was expressed as: % chromium release=(experimental counts per minute (cpm)-background cpm)/(maximum cpm-background cpm)
# [7] = test system: Total T and B cells in splenocytes; test: Splenic T and B cell enumeration by FACS; assay type: in vivo, C57BL/6 mice
# Description: Splenic cells were enumerated with the following assay. Dispersed splenocytes were reacted with fluorescein isothiocyanate-labelled murine monoclonal antibody anti-Ly5 for B cell enumeration and phycoerythrin-labelled monoclonal antibody anti-Thy 1.2 for T cell counts. The labelled cells were then enumerated with a fluorescence-activated cell sorter (FACS) (EPICS-C, Coulter Corp., Hialeah, Fla.).
# [8] = test system: murinecytomegalovirus (MCMV) (Smith strain); test: MCMV titers in tissues; assay type: in vivo, Swiss Webster female mice
# [9] = test system: Macrophage activation (IL-1 concentration); set-up: species or system BALB/c mice; settings: mouse, in vivo, Hydrochloride
# [10] = test system: YAC-1 tumor cells; assay type: in vivo, BALB/c mice; settings: for Mean percent chromium release (2SE), Effector:Target 25:1 / Mean percent chromium release (2SE), Effector:Target 50:1 / Mean percent chromium release (2SE), Effector:Target 100:1: ip, Hydrochloride
# [11] = 50 mg/kg i.p. days -1,+1,+3,+5,+7
# [12] = 100 mg/kg i.p. days -1,+1,+3,+5,+7
# [13] = 200 mg/kg i.p. days -1,+1,+3,+5,+7
# [14] = prophylactic treatment, three doses 50-200 mg/kg i.p., Hydrochloride
# [15] = 50 mg/kg/day i.p. every other day for 4 injections, splenocytes 24 hr after final treatment, n = 5
# [16] = 50 mg/kg, splenocytes 24 hours after final treatment, Hydrochloride
# [17] = 50 mg/kg, splenocytes, Hydrochloride
smiles,measurement,setting,value
"CCCCCCCCCCCCCCCCCCN[C@H](C)C(=O)N[C@@H](CCC(N)=O)C(=O)O.Cl [BCH-527, Octadecyl D-Alanyl L-Glutamine Hydrochloride]","Plaque Assay, PFC relative to control (100%)","[1]; Experiment 7, mice, 10 mg/kg i.p.",6843%
same,"Plaque Assay, PFC per 10^6 spleen cells","[1]; Experiment 7, mice, 10 mg/kg i.p., five days after injections",479 ± 322 PFC per 10^6 spleen cells
same,Immunomodulating activity (in words),"[1]; plaque-forming assay, Table 1",immunostimulants
same,Survivors (%),[2]; 50 mg/kg,100%
same,Survivors/total,[2]; 50 mg/kg,5/5
same,Mean Weight Gain,[2]; 50 mg/kg,8.4 gm
same,Survivors (%),[2]; 100 mg/kg,100%
same,Survivors/total,[2]; 100 mg/kg,5/5
same,Mean Weight Gain,[2]; 100 mg/kg,9.0 gm
same,Survivors (%),[2]; 200 mg/kg,100%
same,Survivors/total,[2]; 200 mg/kg,5/5
same,Mean Weight Gain,[2]; 200 mg/kg,6.9 gm
same,"Enzyme Immunoassay, IgM antibody relative to control (100%)",[3],523%
same,Survivors (%),[4]; [11],90%
same,Survivors/total,[4]; [11],9/10
same,Mean day to death,[4]; 50 mg/kg i.p.,4.0 ± 0.0 days
same,Survivors (%),[4]; [12],78%
same,Survivors/total,[4]; [12],7/9
same,Mean day to death,[4]; 100 mg/kg i.p.,10.5 ± 6.3 days
same,Survivors (%),[4]; [13],100%
same,Survivors/total,[4]; [13],10/10
same,Mean day to death,[4]; 200 mg/kg i.p.,> 21 days
same,Effect on death in CMV-challenged mice (in words),[4]; [14],prevented death; also recorded: preventing death
same,Mean CPM of Treated Thymocytes ± SD,[5]; [15],5660 ± 1011 CPM
same,Effect on macrophage function (in words),[5]; [16],somewhat stimulatory; also recorded: macrophage stimulation
same,"% Chromium Release ± SD, Effector:Target Ratio 25:1",[6]; [15],13.9 ± 2.0%
same,"% Chromium Release ± SD, Effector:Target Ratio 50:1",[6]; [15],24.0 ± 1.7%
same,Effect on natural killer (NK) cell activity (in words),[6]; [16],significantly stimulate; also recorded: stimulated
same,"% Cells/Spleen ± SD, B Cells","[7]; 50 mg/kg/day i.p. every other day for 4 injections, anti-Ly5, n = 5",43 ± 1.5%
same,"% Cells/Spleen ± SD, T Cells","[7]; 50 mg/kg/day i.p. every other day for 4 injections, anti-Thy 1.2, n = 5",39 ± 2.3%
same,Effect on B cell counts (in words),[7]; [17],increase % B cells; also recorded: increased B cell counts
same,Effect on T cell counts (in words),[7]; [17],suppressing T cells; also recorded: suppressed T cell counts
same,Virus titer in Liver,"[8]; Day 3, 50 mg/kg",3.1±0.7 Log10 CCID50/qram
same,Virus titer in Lung,"[8]; Day 3, 50 mg/kg",< 2.5±0.0 Log10 CCID50/qram
same,Virus titer in spleen,"[8]; Day 3, 50 mg/kg",6.1±0.6 Log10 CCID50/qram
same,Virus titer in Liver,"[8]; Day 3, 100 mg/kg",2.9±0.7 Log10 CCID50/qram
same,Virus titer in Lung,"[8]; Day 3, 100 mg/kg",< 2.5±0.0 Log10 CCID50/qram
same,Virus titer in salivary gland,"[8]; Day 3, 100 mg/kg",3.0±0.4 Log10 CCID50/qram
same,Virus titer in spleen,"[8]; Day 3, 100 mg/kg",4.7±1.6 Log10 CCID50/qram
same,Virus titer in Liver,"[8]; Day 3, 200 mg/kg",2.9±0.4 Log10 CCID50/qram
same,Virus titer in Lung,"[8]; Day 3, 200 mg/kg",< 2.5±0.0 Log10 CCID50/qram
same,Virus titer in salivary gland,"[8]; Day 3, 200 mg/kg",< 2.5±0.0 Log10 CCID50/qram
same,Virus titer in spleen,"[8]; Day 3, 200 mg/kg",5.3±0.4 Log10 CCID50/qram
same,Virus titer in Liver,"[8]; Day 6, 50 mg/kg",3.1±1.1 Log10 CCID50/qram
same,Virus titer in Lung,"[8]; Day 6, 50 mg/kg",3.4±0.6 Log10 CCID50/qram
same,Virus titer in spleen,"[8]; Day 6, 50 mg/kg",4.3±1.2 Log10 CCID50/qram
same,Virus titer in Liver,"[8]; Day 6, 100 mg/kg",< 2.5±0.0 Log10 CCID50/qram
same,Virus titer in Lung,"[8]; Day 6, 100 mg/kg",3.9±0.8 Log10 CCID50/qram
same,Virus titer in salivary gland,"[8]; Day 6, 100 mg/kg",2.8±0.3 Log10 CCID50/qram
same,Virus titer in spleen,"[8]; Day 6, 100 mg/kg",4.9±0.6 Log10 CCID50/qram
same,Virus titer in Liver,"[8]; Day 6, 200 mg/kg",< 2.5±0.0 Log10 CCID50/qram
same,Virus titer in Lung,"[8]; Day 6, 200 mg/kg",3.1±0.4 Log10 CCID50/qram
same,Virus titer in salivary gland,"[8]; Day 6, 200 mg/kg",3.5±0.7 Log10 CCID50/qram
same,Virus titer in spleen,"[8]; Day 6, 200 mg/kg",3.7±0.7 Log10 CCID50/qram
same,Effect on tissue virus titres (in words),[8]; [14],reduced MCMV tissue virus titres; also recorded: reducing tissue virus titres
same,IL-1 Conc. (2SE),[9]; 200 mg/kg/day,16.6(3.7) μg/ml and 31.4(3.4) μg/ml and 29.1(7.4) μg/ml
same,Effect on macrophage activation (in words),[9],significant macrophage activator; also recorded: macrophage stimulation
same,Effect on NK cells (in words),"[10]; after 4 injections at 100 and 50 mg/kg/day, […]",strong activation of NK cells
same,Effect on natural killer cells activity (in words),"[10]; mouse, in vivo",stimulated the natural killer cells activity
same,"Mean percent chromium release (2SE), Effector:Target 25:1","[10]; mouse, in vivo, 50 mg/kg/day",10.8(1.3) percent and 12.7(0.4) percent and 14.8(0.9) percent
same,"Mean percent chromium release (2SE), Effector:Target 50:1","[10]; mouse, in vivo, 50 mg/kg/day",17.6(1.1) percent and 17.1(0.6) percent and 18.5(1.0) percent
same,"Mean percent chromium release (2SE), Effector:Target 100:1","[10]; mouse, in vivo, 50 mg/kg/day",21.2(2.9) percent and 23.3(1.0) percent and 23.9(1.1) percent
same,"Mean percent chromium release (2SE), Effector:Target 25:1","[10]; mouse, in vivo, 100 mg/kg/day",10.6(1.8) percent and 11.8(1.7) percent and 16.9(1.3) percent
same,"Mean percent chromium release (2SE), Effector:Target 50:1","[10]; mouse, in vivo, 100 mg/kg/day",16.6(1.9) percent and 16.4(1.8) percent and 20.8(1.4) percent
same,"Mean percent chromium release (2SE), Effector:Target 100:1","[10]; mouse, in vivo, 100 mg/kg/day",20.0(2.0) percent and 22.3(2.0) percent and 26.5(1.6) percent
same,"Mean percent chromium release (2SE), Effector:Target 25:1","[10]; mouse, in vivo, 200 mg/kg/day",11.3(0.6) percent and 8.6(0.6) percent and 9.6(0.9) percent
same,"Mean percent chromium release (2SE), Effector:Target 50:1","[10]; mouse, in vivo, 200 mg/kg/day",17.3(1.4) percent and 12.8(0.7) percent and 12.9(0.9) percent
same,"Mean percent chromium release (2SE), Effector:Target 100:1","[10]; mouse, in vivo, 200 mg/kg/day",20.4(2.4) percent and 18.2(1.0) percent and 17.6(1.1) percent
